The nature of assay [1]: Oxygen radical absorbance capacity (ORAC) assay. The following applies: Trolox equivalent; mean ± SD of triplicate. The text has this:
The method of Cao and Prior (1998) was employed to measure oxygen radical absorbance capacity (ORAC) and as reported in our previous study. The method measures the scavenging potential of compounds against the decomposition of peroxyl radical of 2,2-azobis (2-amino-propane) dihydrochloride (AAPH) as peroxyradical (ORAC ROO^•). The antioxidant capacity of a compound is a measure of the fading fluorescence of a probe (fluorescein) using the area under the curve (AUC) plot in relation to a control blank. The florescence of the probe was programmed to be measured at every two minutes for 2 h after the addition of AAPH at the excitation wavelength and emission set at 485 and 530 nm, respectively. The ORAC results were estimated following a regression equation (Y = a + bX + Cx^2) between Trolox concentration (Y in μM) and the net area under the fluorescence decay curve (X). ORAC values were expressed as μM Trolox equivalent (TE)/mg of test sample.

Assay [2] is described as follows: Trolox equivalent absorbance capacity (TEAC) assay. The following applies: mean ± SD of triplicate. The protocol: The TEAC assay was evaluated following the method of Pellegrini et al. (1999). The working solution containing 88 µL of K2S2O8 (140 mM) and 5 mL ABTS (7 mM) was kept for at least 16 h in the dark at 25 °C. The working solution was then diluted after 16 h with ethanol until the absorbance read approximately 2.0 (±0.1). The extract, purified compounds, or standard (25 µL) was mixed with 300 µL working solution and allowed to incubate in the dark for 30 min at room temperature. Trolox was used as the standard using a concentration range between 0 and 500 µM. The absorbance of the reaction was read at a wavelength of 734 nm using a multiplate reader.

Assay [3] is described as follows: Ferric-ion reducing antioxidant power (FRAP) assay. The following applies: ascorbic acid equivalent; mean ± SD of triplicate. The protocol: The FRAP assay was assessed according to the method of Benzie and Strain (1996). FRAP reagent containing the mixture of acetate buffer (300 mM, pH 3.6), tripyridyl triazine (TPTZ) (10 mM in 40 mM HCl), and 20 mM FeCl3.6H2O in ratio 10:1:1 (v/v/v) was used. Extract, compounds, or standard (10 µL) was added to 300 µL FRAP reagent, incubated for 30 min in the dark at room temperature. The reacting mixture was read at a wavelength of 593 nm in a multiplate reader. Ascorbic acid was used as standard at varying concentrations of 0 to 1000 µM. The result was presented as a mean of independent triplicate experiments and expressed as µM ascorbic acid equivalents per milligram dry weight (µM AAE/g) of the test samples.

The target in assay [4] is T1, alpha-glucosidase (Saccharomyces cerevisiae) (Saccharomyces cerevisiae, UniProt P53341).
T1 construct: purchased Sigma-Aldrich, Cape Town, South Africa
Description: biochemical. The text has this:
(§1) EGCG (epigallocatechin gallate), Trolox (6-hydroxyl-2,5,7,8-tetramethylchroman-2-carboxylic acid), and other reagents such as TPTZ (2,4,6-tri[2-pyridyl]-s-triazine, iron (III) chloride hexahydrate, ABTS (2,2-azino-bis (3-ethylbenzo thiazoline-6-sulfonic acid) diammonium salt), AAPH (2,2-Azobis (2-methylpropionamidine) dihydrochloride), fluorescein sodium salt, potassium peroxodisulfate, copper sulfate, hydrogen peroxide, perchloric acid, alpha-glucosidase (Saccharomyces cerevisiae), alpha-amylase ([…]), and 3,5,di-nitro salicylic acid (DNS), sodium carbonate (Na2CO3), 4-nitro-phenyl-α-D-glucopyranoside (pNPG), di-sodium hydrogen phosphate, and sodium dihydrogen phosphate purchased from Sigma-Aldrich, Cape Town, South Africa. The organic solvents used in this study were supplied by Merck, Cape Town, South Africa. The NMR spectra were carried out on an Avance 400 MHz spectrometer (Bruker, Rheinstetten, Germany) using deuterated chloroform. Preparative HPLC was utilized for the purification of compounds using HPLC-grade methanol and distilled water.
Briefly, 20 μL of 5 mM substrate ([…]) was added to each well and left to incubate for 20 min at 37 °C. The reacting mixture was stopped after incubation by adding 0.1 M sodium carbonate (50 μL). The release of p-nitrophenol of the reacting mixture relating to the activity of the enzyme was read at a wavelength of 405 nm using a multiplate reader (Multiskan, Thermo Scientific).
All the measurements were repeated three times, and the IC50 was calculated using GraphPad Prism 5 version 5.01 (Graph pad software, Inc., La Jolla, CA, USA) statistical software. The data presented are means ± SD obtained from 96-well-plate readers for all in vitro experiments.

In assay [5] the target is T2, alpha-amylase (procaine pancreas) (Sus scrofa, UniProt P00690).
T2 construct: purchased Sigma-Aldrich, Cape Town, South Africa
T2 sequence (P00690 16-511): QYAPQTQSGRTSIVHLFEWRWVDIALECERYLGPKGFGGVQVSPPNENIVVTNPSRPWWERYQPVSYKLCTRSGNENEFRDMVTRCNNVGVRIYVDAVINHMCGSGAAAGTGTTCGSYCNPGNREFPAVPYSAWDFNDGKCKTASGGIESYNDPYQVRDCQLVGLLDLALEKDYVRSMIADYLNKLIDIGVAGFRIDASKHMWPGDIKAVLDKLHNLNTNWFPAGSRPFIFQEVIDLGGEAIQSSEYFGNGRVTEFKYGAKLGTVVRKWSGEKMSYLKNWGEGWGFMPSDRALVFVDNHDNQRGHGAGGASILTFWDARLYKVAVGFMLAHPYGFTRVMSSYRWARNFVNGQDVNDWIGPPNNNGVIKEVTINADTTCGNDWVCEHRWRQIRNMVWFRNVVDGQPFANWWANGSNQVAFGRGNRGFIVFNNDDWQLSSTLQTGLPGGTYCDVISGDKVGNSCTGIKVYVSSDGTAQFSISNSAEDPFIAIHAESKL
Kind of assay: Alpha-amylase inhibitory activity (starch/DNS). The assay is classed as biochemical. The following applies: mean ± SD, n = 3; samples 100–31.2 μg/mL; NA: not active within the evaluated concentrations.
Source text: as §1
The mixture was allowed to incubate for 20 min at 37 °C before the addition of 1% soluble starch (10 μL) and further incubated for another 30 min. A color reagent DNS (100 μL) was added and boiled at 95 °C for 15 min. The change in color was read at a wavelength of […] using a multiplate reader.
The data presented are means ± SD obtained from 96-well-plate readers for all in vitro experiments.

Assay [6] concerns intracellular de novo triglyceride synthesis. Also on record: method as in PMID 28034282. The following applies: without affecting cell viability; cited from earlier work.
In assay [7] the target is rat liver diacylglycerol acyltransferase 1 (DGAT1). Further details: method as in PMID 28034282. The following applies: read-out: IC50 against rat liver DGAT1; cited from earlier work.

T1 sequence (P53341 whole entry): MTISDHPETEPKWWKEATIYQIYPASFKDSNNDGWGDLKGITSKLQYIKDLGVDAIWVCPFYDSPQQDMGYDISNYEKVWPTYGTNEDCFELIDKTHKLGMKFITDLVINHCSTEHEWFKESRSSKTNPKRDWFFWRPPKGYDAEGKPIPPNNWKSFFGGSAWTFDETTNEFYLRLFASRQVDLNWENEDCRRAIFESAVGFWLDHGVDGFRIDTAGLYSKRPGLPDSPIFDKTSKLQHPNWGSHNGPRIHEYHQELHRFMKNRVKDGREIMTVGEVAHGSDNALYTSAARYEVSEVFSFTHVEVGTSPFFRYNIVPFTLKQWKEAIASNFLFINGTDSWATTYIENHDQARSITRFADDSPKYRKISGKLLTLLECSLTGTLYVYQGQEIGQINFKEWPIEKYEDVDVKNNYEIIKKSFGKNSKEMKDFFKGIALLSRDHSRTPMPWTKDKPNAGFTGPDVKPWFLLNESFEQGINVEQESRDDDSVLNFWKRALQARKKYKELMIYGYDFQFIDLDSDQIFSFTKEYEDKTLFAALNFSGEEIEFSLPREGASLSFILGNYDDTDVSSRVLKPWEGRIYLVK

For orientation: IC50 means the point on the concentration scale where inhibition reaches its midpoint. Consider `COc1ccc(-c2cc(=O)c3c(O)cc(OC)cc3o2)cc1` [4,7-dimethylapigenin ether, 4,7-dimethylapigenin], for which, in assay [1], the ORAC is on record as 6.47 ± 0.01 mM TE/g. Also, in assay [2], the TEAC is on record as 3.19 ± 0.003 mM TE/g. Moreover, in assay [3], the FRAP was found to be 0.61 ± 0.006 mM AAE/g. The molecule also had a concentration for half-maximal inhibition (IC50) in assay [4] of 96.2 µM.
Take `COc1c(C(C)C)cc2c(c1O)[C@@]1(C(=O)O)CCCC(C)(C)[C@@H]1CC2` [12-methoxycarnosic acid]: the ORAC in assay [1] worked out at 20.25 ± 0.01 mM TE/g. For the same molecule, in assay [2], the TEAC amounted to 0.34 ± 0.003 mM TE/g. Further, the IC50 in assay [5] is 46.8 µM; in assay [4], 107 µM. Also, the FRAP in assay [3] was found to be 0.51 ± 0.003 mM AAE/g.
For the molecule `CC(C)c1cc2c(c(O)c1O)[C@@]13CCCC(C)(C)[C@@H]1C[C@@H]2OC3=O` [Carnosol, carnosol], the ORAC in assay [1] is 23.96 ± 0.01 mM TE/g. Moreover, the TEAC in assay [2] worked out at 0.33 ± 0.002 mM TE/g. Besides, the IC50 in assay [5] was 59.9 µM; in assay [7], 62.5 µM; in assay [4] it was 157 µM. Also, in assay [3], the FRAP amounted to 3.92 ± 0.002 mM AAE/g. The “deactivation of intracellular de novo triglyceride synthesis” value in assay [6] was 67.5–90.6%.
As to `O=C(O[C@@H]1Cc2c(O)cc(O)cc2O[C@@H]1c1cc(O)c(O)c(O)c1)c1cc(O)c(O)c(O)c1` [EGCG, epigallocatechin gallate, reference compound], the ORAC in assay [1] is listed as 3.98 ± 0.00 mM TE/g. Also, the TEAC in assay [2] amounted to 4.15 ± 0.02 mM TE/g. Also, the FRAP in assay [3] was 7.53 ± 0.005 mM AAE/g.
Turning to `CC(C)c1cc2c(c(O)c1O)[C@@]13CCCC(C)(C)[C@@H]1[C@H](OC3=O)[C@H]2O` [Rosmanol, rosmanol], the ORAC in assay [1] is recorded as 25.79 ± 0.01 mM TE/g. The TEAC in assay [2] stood at 2.06 ± 0.003 mM TE/g. Moreover, the values for the IC50 in assay [5] and in assay [4] were 118 µM and 47.3 µM, respectively. For the same molecule, the FRAP in assay [3] was 1.52 ± 0.002 mM AAE/g.

(Values after paper PMC7699461, “Alpha-Glucosidase and Alpha-Amylase Inhibitory Activities, Molecular Docking, and Antioxidant Capacities of Salvia aurita Constituents” (Antioxidants, 2020).)
